Measured values: publication PMC11587507, “The Importance of Stereochemistry in 5-HT7R Modulation—A Case Study of Hydantoin Derivatives” (ACS Chemical Neuroscience, 2024)
Blank lines part the entries; values can stand above or below the compound they belong to.

What was measured:
5-HT2AR = 5-HT2AR (Homo sapiens, UniProt P28223); assay: Radioligand binding assay, [3H]-ketanserin displacement; details: mean ± SD from two independent measurements; read-out: Ki 5-HT2A
Description: (§1) Cell pellets were thawed and homogenized in 10 vol of assay buffer using an Ultra Turrax tissue homogenizer and centrifuged twice at 35 000 g for 15 min at 4 °C, with incubation for 15 min at 37 °C in between. The composition of the assay buffers was as follows: for 5-HT1AR: 50 mM Tris HCl, 0.1 mM EDTA, 4 mM MgCl2, 10 μM pargyline and 0.1% ascorbate; for 5-HT2AR: 50 mM Tris HCl, 0.1 mM EDTA, 4 mM MgCl2 and 0.1% ascorbate; for 5- HT7bR: 50 mM Tris HCl, 4 mM MgCl2, […] and 0.1% ascorbate; and for dopamine D2LR: 50 mM Tris HCl, 1 mM EDTA, 4 mM MgCl2, 120 mM NaCl, 5 mM KCl, 1.5 mM CaCl2 and 0.1% ascorbate. All assays were incubated in a total volume of […] in 96-well microtiter plates for 1 h at 37 °C, except 5-HT2AR which was incubated at 27 °C. The process of equilibration was terminated by rapid filtration through Unifilter plates with a 96-well cell harvester, and radioactivity retained on the filters was quantified on a Microbeta plate reader (PerkinElmer, USA). For displacement studies, the assay samples contained as radioligands (PerkinElmer, USA): 2.5 nM [^3H]-8-OH-DPAT (135.2 Ci/mmol) for 5-HT1AR; 1 nM [3H]-ketanserin (53.4 Ci/mmol) for 5- HT2AR; 0.8 nM [3H]-5- CT (39.2 Ci/mmol) for 5-HT7R or 2.5 nM [3H]-raclopride (72 Ci/mmol) for D2LR. Nonspecific binding was defined with […] of 5-HT in 5-HT7R binding experiments, whereas […] were used in 5-HT2AR and D2L assays, respectively. Each compound was tested in triplicate at 7 concentrations (10^–10–10^–4 M). The inhibition constants (Ki) were calculated using the Cheng–Prusoff equation.[48] Results were expressed as means of at least two separate experiments.

dopamine D2LR = dopamine D2LR (Homo sapiens, UniProt P14416); assay: Radioligand binding assay, [3H]-raclopride displacement; details: mean ± SD from two independent measurements; read-out: Ki D2
dopamine D2LR, sequence (P14416 whole entry): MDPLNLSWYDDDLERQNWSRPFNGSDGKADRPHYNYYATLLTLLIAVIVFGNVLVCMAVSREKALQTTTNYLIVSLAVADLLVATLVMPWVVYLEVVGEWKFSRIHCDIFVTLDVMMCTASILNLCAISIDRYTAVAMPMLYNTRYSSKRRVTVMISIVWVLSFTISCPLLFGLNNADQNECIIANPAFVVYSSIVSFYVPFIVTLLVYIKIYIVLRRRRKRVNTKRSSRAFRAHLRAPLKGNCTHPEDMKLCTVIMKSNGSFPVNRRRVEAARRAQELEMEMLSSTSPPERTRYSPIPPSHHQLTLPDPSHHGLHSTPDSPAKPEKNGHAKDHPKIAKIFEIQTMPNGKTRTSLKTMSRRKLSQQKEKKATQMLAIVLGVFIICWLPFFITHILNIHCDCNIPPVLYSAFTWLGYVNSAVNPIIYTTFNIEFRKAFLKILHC
Description: as §1

5-HT7R [1] = molecular target: T1, 5-HT7R (Homo sapiens, UniProt P34969); assay: Radioligand binding assay, [3H]-5-CT displacement; details: for Ki: mean ± SD from two independent measurements, read-out: Ki 5-HT7
Description: as §1
Target sequence in this assay (P34969 1-432): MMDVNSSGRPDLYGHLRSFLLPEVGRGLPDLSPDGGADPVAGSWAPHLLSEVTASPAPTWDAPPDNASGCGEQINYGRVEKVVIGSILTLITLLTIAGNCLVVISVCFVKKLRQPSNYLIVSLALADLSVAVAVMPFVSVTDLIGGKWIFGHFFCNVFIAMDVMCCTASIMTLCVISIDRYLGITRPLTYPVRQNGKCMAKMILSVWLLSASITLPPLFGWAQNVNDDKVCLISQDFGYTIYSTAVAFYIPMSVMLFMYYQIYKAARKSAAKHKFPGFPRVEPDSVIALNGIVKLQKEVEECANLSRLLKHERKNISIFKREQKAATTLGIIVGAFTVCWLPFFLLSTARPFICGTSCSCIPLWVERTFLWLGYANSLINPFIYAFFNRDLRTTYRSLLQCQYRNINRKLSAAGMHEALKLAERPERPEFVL

punished crossings = assay: Four-plate test (FPT) in mice; assay type: in vivo
Description: (§2) The behavioral experiments were performed on male BalbC mice weighing 20–25 g, n = 333. The animals were purchased from the Animal House at the Faculty of Pharmacy, Jagiellonian University Medical College, Krakow, Poland. Mice were kept in groups of ten in Makrolon type 3 cages (dimensions 26.5 × 15 × 42 cm). The animals were kept in an environmentally controlled room (ambient temperature 22 ± 2 °C; relative humidity 50–60%; 12:12 light: dark cycle; and lights on at 8:00). They were allowed to acclimatize with the environment enriched by nesting material, tooth grinding material, houses, and toys for 1 week before commencement of the experiments. During acclimatization, mice were accustomed to the presence of female experimenters and their appropriate manner of animals’ restraint, i.e., cupping each separate mouse in open hands, according to the 3Rs recommendations (handling).[50],[51] Standard laboratory food (Sniff M-Z) and filtered water were freely available. All the experiments were conducted in the light phase between 9 AM and 2 PM. Experimental groups consisted of 6–10 randomly selected animals, depending on the experiment, and each animal was used only once. The experiments were performed by an observer who was unaware of the treatment administered. All the experimental procedures with mice were carried out under EU Directive 2010/63/EU and were approved by the Local Ethics Commission for Animal Experiments of Jagiellonian University in Krakow (Approval nos.:297/2019).
(§3) Compounds were injected once intraperitoneally (i.p.) 60 min before tests, at a volume of 10 mL/kg. Control animals received a vehicle injection according to the same schedule.
The four-plate apparatus (Bioseb, Pinellas Park, USA) was used for tests. Following a 15 s habituation period, the animal’s motivation to explore a novel environment is suppressed by an electric foot shock (0.8 mA, 0.5 s) every time it moves from one plate to another during a 1 min test session. This action is referred to as a “punished crossing” and is followed by a 3 s shock interval, during which the animal can move across plates without receiving a shock.[53]

immobility time = assay: Forced swim test (FST, Porsolt's test) in mice; assay type: in vivo; details: 60 min before test
Description: as §2, §3
The FST experiment was carried out according to the method of Porsolt et al.[52] The total duration of immobility was recorded during the last 4 min of this 6 min period. The reduction of immobility time compared to the control was a measure of antidepressant properties of the tested compound. A mouse was regarded as immobile when it remained floating on water, making only small movements to keep its head above it.

locomotor activity = assay: Spontaneous locomotor activity in mice; assay type: in vivo
Description: as §2, §3
Locomotor activity was recorded with an Opto M3 multichannel activity monitor (Columbus Instruments, Columbus, USA). […] According to the 3Rs recommendations,[54] locomotor activity was assessed for the minimal active doses obtained in FST and/or FPT to ensure that detected antidepressant-/anxiolytic-like effects are not the result of increased motility of mice.

5-HT1AR = molecular target: T2, 5-HT1AR (Homo sapiens, UniProt P08908); assay: Radioligand binding assay, [3H]-8-OH-DPAT displacement; details: mean ± SD from two independent measurements; read-out: Ki 5-HT1A
T2 sequence (P08908 1-422): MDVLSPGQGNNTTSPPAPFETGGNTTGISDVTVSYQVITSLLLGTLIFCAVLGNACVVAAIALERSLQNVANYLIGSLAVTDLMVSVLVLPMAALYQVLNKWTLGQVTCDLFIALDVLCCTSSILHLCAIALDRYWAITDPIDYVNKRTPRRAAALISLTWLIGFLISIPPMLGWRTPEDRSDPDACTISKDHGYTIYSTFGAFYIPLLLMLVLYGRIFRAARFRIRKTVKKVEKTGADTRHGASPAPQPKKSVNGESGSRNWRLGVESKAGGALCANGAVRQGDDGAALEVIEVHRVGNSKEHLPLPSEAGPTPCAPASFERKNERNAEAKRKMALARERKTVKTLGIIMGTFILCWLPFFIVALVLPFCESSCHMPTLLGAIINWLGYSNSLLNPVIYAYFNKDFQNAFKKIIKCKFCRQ
Description: as §1

NK1 = molecular target: T3, NK1 (Homo sapiens, UniProt P25103); assay: NK1 screening at 1 µM (Eurofins Cerep); assay type: cell-based; details: read-out: NK1 % inhibition of control agonist response
T3 construct: Eurofins Cerep
T3 sequence (P25103 whole entry): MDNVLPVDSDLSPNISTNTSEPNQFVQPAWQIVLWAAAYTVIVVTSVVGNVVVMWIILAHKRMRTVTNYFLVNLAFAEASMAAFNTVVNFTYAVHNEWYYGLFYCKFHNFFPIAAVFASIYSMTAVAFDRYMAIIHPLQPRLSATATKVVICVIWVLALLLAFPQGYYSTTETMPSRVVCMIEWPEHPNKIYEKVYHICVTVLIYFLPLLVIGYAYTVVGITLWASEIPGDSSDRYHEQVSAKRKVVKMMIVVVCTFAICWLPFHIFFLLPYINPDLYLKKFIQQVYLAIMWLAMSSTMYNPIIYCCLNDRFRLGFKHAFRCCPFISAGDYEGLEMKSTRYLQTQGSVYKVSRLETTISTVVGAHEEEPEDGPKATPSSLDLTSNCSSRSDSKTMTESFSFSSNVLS
Description: (§4) 1.In vitro evaluation towards another related protein target (GABA, NK 1)
(§5) Table S2. Affinity results to GABA and NK 1 […]
(§6) Screening at 1 µM Screening at 1 µM
(§7) (% inhibition of control (% of inhibtion of control agonist response) specific binding) […]
(§8) adata are presented as the mean ± SD from two independent measurements
(§9) The above biological screening have been performed at Eurofins Cerep (2, rue du Professeur GARGOUÏL, B.P. 30001, 86 600 Celle l'Evescault, France according to previously described […]
(§10) Tsuji, A. et al. (1988), Antimicrob. Agents Chemother., 32: 190-194.
(§11) Eistetter, H.R. et al. (1992), Glia, 6: 89-95.
(§12) Detailed parameters for NK1 assay:
(§13) Detailed parameters for GABA (non-specific) assay: […]

GABA (non-specific) = GABA (non-specific) binding screening at 1 µM (Eurofins Cerep)
Description: as §4, §5, §6, §7, §8, §9, §10, §11, §12, §13

5-HT7R [2] = molecular target: T1, 5-HT7R; assay: cAMP functional assay (HTRF), antagonist effect, CHO cells; assay type: cell-based
Description: The cAMP concentration was measured using the HTRF method. Adenylate cyclase activity was expressed as the percentage of the maximal effect obtained with 300 nM serotonin. The compounds were tested at 7 concentrations (10^–12–10^–6 M) in the h5-HT7 antagonist effect.
Target sequence in this assay (P34969 1-445 isoform P34969-2): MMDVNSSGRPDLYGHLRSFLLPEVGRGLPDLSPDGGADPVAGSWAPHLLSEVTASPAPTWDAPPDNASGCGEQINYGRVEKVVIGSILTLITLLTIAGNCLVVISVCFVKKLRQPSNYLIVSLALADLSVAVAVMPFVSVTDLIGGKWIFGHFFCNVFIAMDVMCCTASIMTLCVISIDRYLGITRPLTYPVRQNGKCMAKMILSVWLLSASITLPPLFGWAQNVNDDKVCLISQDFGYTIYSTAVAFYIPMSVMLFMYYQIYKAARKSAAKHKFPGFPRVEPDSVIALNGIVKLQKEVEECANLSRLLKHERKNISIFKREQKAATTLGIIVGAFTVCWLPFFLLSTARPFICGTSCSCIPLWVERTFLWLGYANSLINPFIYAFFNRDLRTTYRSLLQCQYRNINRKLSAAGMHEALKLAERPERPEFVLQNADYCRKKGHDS

5-HT2AR, sequence (P28223 whole entry): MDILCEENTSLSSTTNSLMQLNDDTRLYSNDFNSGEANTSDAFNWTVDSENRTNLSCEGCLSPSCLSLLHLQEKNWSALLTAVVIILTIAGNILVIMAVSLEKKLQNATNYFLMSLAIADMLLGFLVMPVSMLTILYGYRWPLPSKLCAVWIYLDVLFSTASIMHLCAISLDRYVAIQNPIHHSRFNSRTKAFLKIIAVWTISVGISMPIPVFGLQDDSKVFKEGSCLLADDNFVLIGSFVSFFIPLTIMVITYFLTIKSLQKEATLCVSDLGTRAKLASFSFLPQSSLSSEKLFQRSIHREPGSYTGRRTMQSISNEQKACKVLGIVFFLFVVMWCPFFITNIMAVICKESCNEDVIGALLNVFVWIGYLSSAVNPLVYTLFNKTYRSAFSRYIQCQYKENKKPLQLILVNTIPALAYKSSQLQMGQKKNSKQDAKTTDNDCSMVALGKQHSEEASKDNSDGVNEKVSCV

Compound: C[C@]1(c2ccc(F)cc2)NC(=O)N(C[C@H](O)CN2CCN(C(c3ccccc3)c3ccccc3)CC2)C1=O [Compound 6.2, (R)-3-((R)-3-(4-Benzhydrylpiperazin-1-yl)-2-hydroxypropyl)-5-(4-fluorophenyl)-5-methylimidazolidine-2,4-dione]
- Ki (5-HT2AR): 11400 nM
- Ki (dopamine D2LR): 1520 ± 331 nM
- Ki (5-HT7R [1]): 9090 ± 1700 nM

- locomotor activity number of crossings ± SEM during 1 min (locomotor activity; 2.5 mg/kg i.p.): 10.50 ± 4.11; NS
- locomotor activity number of crossings ± SEM during 60 min (locomotor activity; 2.5 mg/kg i.p.): 183.75 ± 33.41; p < 0.001
- Ki (dopamine D2LR): 715 ± 163 nM
- Ki (5-HT1AR): 121 ± 18 nM
Compound: COc1ccccc1N1CCN(CC(O)CN2C(=O)NC(C)(c3ccc(F)cc3)C2=O)CC1 (centres unmarked) [Compound 1]
- anxiolytic-like activity (punished crossings; i.p., all doses tested): inactive
- decrease of immobility time vs vehicle (immobility time; 2.5 mg/kg i.p.): about 32%
- decrease of immobility time vs vehicle (immobility time; 5 mg/kg i.p.): ~25%

Compound: C[C@@]1(c2ccc(F)cc2)NC(=O)N(C[C@@H](O)CN2CCN(C(c3ccccc3)c3ccccc3)CC2)C1=O [Compound 6.3, (S)-3-((S)-3-(4-Benzhydrylpiperazin-1-yl)-2-hydroxypropyl)-5-(4-fluorophenyl)-5-methylimidazolidine-2,4-dione]
- Ki (5-HT2AR): 4130 ± 983 nM
- Ki (dopamine D2LR): 312 ± 52 nM
- Ki (5-HT7R [1]): 120 ± 27 nM

Compound: COc1ccccc1N1CCN(C[C@@H](O)CN2C(=O)N[C@@](C)(c3ccc(F)cc3)C2=O)CC1 [Compound 5.4, (S)-5-(4-Fluorophenyl)-3-((R)-2-hydroxy-3-(4-(2-methoxyphenyl)piperazin-1-yl)propyl)-5-methylimidazolidine-2,4-dione]
- anxiolytic-like activity (punished crossings; i.p., all doses tested): inactive
- inhibition at 1 µM (NK1): 2.9%
- decrease of immobility time vs vehicle (immobility time; 5 mg/kg i.p.): 25%
- decrease of immobility time vs vehicle (immobility time; 10 mg/kg i.p.): 20%
- locomotor activity number of crossings ± SEM during 3–6 min (locomotor activity; 5 mg/kg i.p.): 138.75 ± 36.61; NS
- locomotor activity number of crossings ± SEM during 1 min (locomotor activity; 5 mg/kg i.p.): 18.50 ± 8.00; NS
- locomotor activity number of crossings ± SEM during 60 min (locomotor activity; 5 mg/kg i.p.): 716.25 ± 117.75; p < 0.001
- Ki (5-HT2AR): 21800 nM
- Ki (dopamine D2LR): 888 ± 97 nM
- GABA (non-specific) % of inhibition of control specific binding (GABA (non-specific)): 7%
- Ki (5-HT1AR): 306 ± 71 nM

Compound: C[C@@]1(c2ccc(F)cc2)NC(=O)N(C[C@H](O)CN2CCN(C(c3ccccc3)c3ccccc3)CC2)C1=O [Compound 6.4, (S)-3-((R)-3-(4-Benzhydrylpiperazin-1-yl)-2-hydroxypropyl)-5-(4-fluorophenyl)-5-methylimidazolidine-2,4-dione]
- anxiolytic-like activity (punished crossings; 5 mg/kg i.p.): did not reach significant levels
- anxiolytic-like activity (punished crossings; doses of 1.25, 2.5 and 10 mg/kg i.p.): active
- increase of number of punished crossings vs vehicle (punished crossings; i.p., active doses): about 60%
- inhibition at 1 µM (NK1): -4.4%
- decrease of immobility time vs vehicle (immobility time; 2.5 mg/kg i.p.): 29%
- locomotor activity number of crossings ± SEM during 3–6 min (locomotor activity; 1.25 mg/kg i.p.): 63.75 ± 25.93; NS
- locomotor activity number of crossings ± SEM during 1 min (locomotor activity; 1.25 mg/kg i.p.): 4.25 ± 0.46; NS
- locomotor activity number of crossings ± SEM during 60 min (locomotor activity; 1.25 mg/kg i.p.): 694.25 ± 78.90; NS
- locomotor activity number of crossings ± SEM during 3–6 min (locomotor activity; 2.5 mg/kg i.p.): 105.75 ± 49.57; NS
- locomotor activity number of crossings ± SEM during 60 min (locomotor activity; 2.5 mg/kg i.p.): 922.50 ± 74.78; p < 0.001
- Ki (5-HT2AR): 5790 ± 1070 nM
- Ki (dopamine D2LR): 511 ± 96 nM
- GABA (non-specific) % of inhibition of control specific binding (GABA (non-specific)): 26%
- Ki (5-HT7R [1]): 8 ± 3 nM
- fold higher 5-HT7R affinity in comparison to 2 (5-HT7R [1]; ratio of Ki values): ~10 fold
- Ki (5-HT1AR): 8930 ± 1840 nM
- intrinsic activity at 5-HT7R (5-HT7R [2]; cAMP functional test): antagonists
- IC50 (5-HT7R [2]; cAMP, CHO cells, h5-HT7 antagonist effect vs 300 nM serotonin): 113 ± 25 nM
- Kb (5-HT7R [2]; cAMP, CHO cells, h5-HT7 antagonist effect, read-out: Kb ± SEM): 14 ± 3 nM

- Ki (dopamine D2LR): 1110 ± 137 nM
- Ki (5-HT1AR): 219 ± 43 nM
Compound: COc1ccccc1N1CCN(C[C@H](O)CN2C(=O)N[C@@](C)(c3ccc(F)cc3)C2=O)CC1 [Compound 5.3, (S)-5-(4-Fluorophenyl)-3-((S)-2-hydroxy-3-(4-(2-methoxyphenyl)piperazin-1-yl)propyl)-5-methylimidazolidine-2,4-dione]

Compound: C[C@]1(c2ccc(F)cc2)NC(=O)N(C[C@@H](O)CN2CCN(C(c3ccccc3)c3ccccc3)CC2)C1=O [Compound 6.1, (R)-3-((S)-3-(4-Benzhydrylpiperazin-1-yl)-2-hydroxypropyl)-5-(4-fluorophenyl)-5-methylimidazolidine-2,4-dione]
- Ki (5-HT2AR): 12300 nM
- Ki (dopamine D2LR): 463 ± 75 nM
- Ki (5-HT7R [1]): 2900 ± 461 nM

Compound: COc1ccccc1N1CCN(C[C@@H](O)CN2C(=O)N[C@](C)(c3ccc(F)cc3)C2=O)CC1 [Compound 5.2, (R)-5-(4-Fluorophenyl)-3-((R)-2-hydroxy-3-(4-(2-methoxyphenyl)piperazin-1-yl)propyl)-5-methylimidazolidine-2,4-dione]
- Ki (5-HT2AR): 41100 nM
- Ki (dopamine D2LR): 712 ± 101 nM
- Ki (5-HT1AR): 1880 ± 351 nM

- Ki (dopamine D2LR): 462 ± 94 nM
- Ki (5-HT1AR): 939 ± 153 nM
Compound: COc1ccccc1N1CCN(C[C@H](O)CN2C(=O)N[C@](C)(c3ccc(F)cc3)C2=O)CC1 [Compound 5.1, (R)-5-(4-Fluorophenyl)-3-((S)-2-hydroxy-3-(4-(2-methoxyphenyl)piperazin-1-yl)propyl)-5-methylimidazolidine-2,4-dione]
